Results from patent US7208495B2, “Benzo-fused 5-membered hetrocycle compounds, process for preparation of the same, and use thereof” (Takeda Pharmaceutical Company Limited, priority 2001, dated 2007).

Experiments:
[1] = tested on: human neuroblastoma SK-N-SH cells; test: Cytoprotection activity against PI-3 kinase inhibitor LY-294002 in human neuroblastoma SK-N-SH cells; type: cell-based; conditions: test compound 1.0 μM with LY-294002 30 μM, Alamarblue reduction one day after start, (A−B)/(C−B)×100
Procedure: Cytoprotection activity against a PI-3 kinase inhibitor LY-294002 in human neuroblastoma SK-N-SH cells.
Human neuroblastoma SK-N-SH cells were purchased from American Type Cell Culture (ATCC). DMEM/F-12 culture medium and potassium/magnesium-free phosphate buffer saline (PBS(−)) were purchased from Nikken Biomedical Co., Ltd., N2 additives and EDTA solution were purchased from GIBCO BRL Company, fetal bovine serum (FCS) and a mixed solution of penicillin (5000 U/ml) and streptomycin (5 mg/ml) were purchased from BioWhittaker Inc., Alamarblue™ reagent was purchased from Wako Pure Chemical Industries Ltd., culture flasks were purchased from Falcon Company, collagen-coated 96-well multi-plates were purchased from Iwaki Glass Co., Ltd., and LY-294002 was purchased from Alexis Biochemicals, respectively. As for other reagents, commercially available guaranteed reagents were used.
A DMEM/F-12 culture medium which contains 5% FCS, 0.5% N2, 10 mM HEPES, and a 1% mixed solution of penicillin (5000 U/ml) and streptomycin (5 mg/ml) was used to subculture SK-N-SH cells in a carbon dioxide incubator under a mixed gas atmosphere consisting of 10% carbon dioxide/90% air. After being cultivated to a sub-confluent stage, the cells were detached with a PBS(−) solution containing 2.5 mM EDTA and seeded onto collagen-coated 96-well multi-plates in the proportion of 10^4/100 μL well. After cultivation for 24 hours, the cultured cells were used in a cytotoxic test.
[…] of the culture medium of the SK-N-SH cells that were cultured as described above on the collagen-coated 96-well multi-plates was removed, and 40 μL each of LY-294002 having a final concentration of 30 μM and a test compound having a final concentration that was adjusted to be 1.0 μM were simultaneously added to initiate the cytotoxicity test. Note that each test compound used was diluted to a concentration of 10 mM with dimethyl sulfoxide, and the LY-294002 used was diluted to a concentration of 100 mM with dimethyl sulfoxide.
The survival activity of neural cells that were still living one day after the initiation of the cytotoxicity test was estimated by the reductive activity of Alamarblue™ reagent as an index. 20 μL of the culture medium was removed, 20 μL of Alamarblue™ reagent was added, and the amount of Alamarblue™ reagent reduced for 4 hours incubation was calorimetrically measured with a plate reader (WAKO SPECTRAMAX 250 Microplate Reader) (measurement wave length 570 nm, reference wave length 600 nm).
Cytoprotection activity was calculated by means of the following equation. Cytoprotection activity a test compound=(A−B)/(C−B)×100 (%) • A: The survival activity of a group consisting of a test compound and LY-294002 • B: The survival activity of a group consisting of LY-294002 • C: The survival activity of a control group (Results)
At least 4 wells for every 1 dose of a test compound was used to determine the cytoprotection activity of a test compound.

[2] = tested on: mixed rat glia culture; test: Neurogenesis enhancing activity in mixed rat glia culture (β III-tubulin positive cell area); type: cell-based; conditions: compound 1 μM; serum-free medium, five days differentiation; β III-tubulin positive cell area by image analysis versus control without compound
From the text: Neurogenesis Enhancing Activity in Mixed Rat Glia Culture
Neonatal of SD rats were purchased from Japan Charles River Co, Ltd. A […] nylon cell strainer was purchased from Beckton-Dickinson. DMEM/F12 culture medium, antibiotic, and N2 additive were purchased from Life Technology Corp. Anti β III-tubulin antibody was purchased from Sigma Corp. DAKO EnVision+/HRP kit was purchased from Dako Japan Corp. As for other reagents, commercially available guaranteed reagents were used.
Rat mixed glia culture was prepared from the cerebrums of 2 day old neonatal SD rat. The neonates were anaesthetised with ice cooling, were decapitated, and their brains were quickly removed. The meninges were carefully removed, and the cerebral cortex was separated therefrom. The cerebral cortex was passed through 40 micron nylon mesh, and it was physically dissociated. Cell suspension was then layered in a cell dispersion liquid on serum, and the cells were fractionated by non-continuous density gradient centrifugation. The precipitate was washed twice with growth culture medium (10% FBS and antibiotic. added to DMEM/F12), and it was dispersed. Mixed glia culture was seeded and inoculated onto a collagen coated 96 well multiplate with 1×10^5 cells per well, and was cultured for five days.
After culturing for five days, mixed glia culture was used in a differentiation assay. Growth culture medium was substituted with a serum-free medium (N2 supplememt and antibiotic added to DMEM/F12), and test compound was added simultaneously. After differentiation for five days, culture was fixed with 4% paraformaldehyde, and was immunostained with the mouse anti β III-tubulin monoclonal antibody and the DAKO EnVison+/HRP kit.
β III-tubulin positive cell area were quantified by image analysis, and was compared to when compound (I) was added (1 μM) and when it was not added (control).

SMILES | Cell protection activity (%) [1] [%] | Differentiation/nacent promotion activity (%/control) [2] [%/control]
COc1ccc(C2CCN(c3c(C)c(C)c4c(c3C)[C@@H](c3ccc(C)cc3)C(C)(C)O4)CC2)cc1OC [Example 32, (3R)-4-(3,4-dimethoxyphenyl)-1-(2,2,4,6,7-pentamethyl-3-(4-methylphenyl)-2,3-dihydro-1-benzofuran-5-yl)piperidine] | 35.6 | 371
COc1ccc(N2CCN(c3c(C)c(C)c4c(c3C)C(O)(c3ccc(C)cc3)C(C)(C)O4)CC2)cc1 (stereo not shown) [Example 33, 1-(3-hydroxy-2,2,4,6,7-pentamethyl-3-(4-methylphenyl)-2,3-dihydro-1-benzofuran-5-yl)-4-(4-methoxyphenyl)piperazine] | 24.9 | 448
COc1ccc(N2CCN(c3c(C)c(C)c4c(c3C)C(Nc3ccccc3)C(C)(C)O4)CC2)cc1 (stereo not shown) [Example 58, N-phenyl-5-(4-(4-methoxyphenyl)piperazin-1-yl)-2,2,4,6,7-pentamethyl-2,3-dihydro-1-benzofuran-3-amine] | 39.2 | –
COc1ccc(C2CCN(c3c(C)c(C)c4c(c3C)C(N3CCc5ccccc5CC3)C(C)(C)O4)CC2)cc1OC (stereo not shown) [Example 92, 3-(5-(4-[3,4-dimethoxyphenyl]piperidino)-2,2,4,6,7-pentamethyl-2,3-dihydro-1-benzofuran-3-yl)-2,3,4,5-tetrahydro-1H-3-benzoazepin] | 29.6 | –
COc1ccc(N2CCN(c3c(C)c(C)c4c(c3C)C(c3ccc(C)cc3)C(C)(C)O4)CC2)cc1 (stereo not shown) [Example 46, 1-(2,2,4,6,7-pentamethyl-3-(4-methylphenyl)-2,3-dihydro-1-benzofuran-5-yl)-4-(4-methoxyphenyl)piperazine] | 39.5 | 842
COc1ccc(N2CCN(c3c(C)c(C)c4c(c3C)C(N3CCCCC3)C(C)(C)O4)CC2)cc1 (stereo not shown) [Example 59, 4-(4-methoxyphenyl)-1-(2,2,4,6,7-pentamethyl-3-piperidino-2,3-dihydro-1-benzofuran-5-yl)piperazine] | 23.9 | –
COc1ccc(C2CCN(c3c(C)c(C)c4c(c3C)C(c3ccc(C)cc3)C(C)(C)O4)CC2)cc1OC (stereo not shown) [Example 79, 4-(3,4-dimethoxyphenyl)-1-(3-(4-methylphenyl)-2,2,4,6,7-pentamethyl-2,3-dihydro-1-benzofuran-5-yl)piperidine] | 31.3 | –
